The subject of data set [1] is "epilepsy-like" discharges of pyramidal cells. The experiment in a line: penicillin-induced "epileptic" hippocampus section preparation (electrophysiology). The conditions noted are these: in vitro; concentration of 6 μM.

Data on 4 compounds can be found in patent US7498319B2, “Phosphinic acid derivatives” (Novartis AG, priority 2003, dated 2009).

Counter-ions that a name gives are not always drawn.

As usually defined, the melting point is the temperature, or range, at which the solid turns liquid. For the compound `COc1cc(CNC[C@H](O)CP(=O)(O)CC2CCCCC2)ccn1` (as salt: hydrochloride) [Example 2, {3-[(2-methoxy-4-pyridylmethyl)-amino]-2-(S)-hydroxy-propyl}-(cyclohexylmethyl)-phosphinic acid], the melting point was in the range of 159 to 160 °C. Compound `O=c1cc(CNC[C@H](O)CP(=O)(O)Cc2ccccc2)cc[nH]1` (as salt: hydrochloride) [Example 10, {2-(S)-hydroxy-3-[(2-oxo-1,2-dihydro-pyridin-4-ylmethyl)-amino]-propyl}-(benzyl)-phosphinic acid] gave a melting point of 226 to 228 °C.

`COc1cc(CNC[C@H](O)CP(=O)(O)Cc2ccccc2)ccn1` [Example 4, {3-[(2-methoxy-4-pyridylmethyl)-amino]-2-(S)-hydroxy-propyl}-(benzyl)phosphinic acid] registered a melting point of 192 to 195 °C.

Regarding `NCC(CC(=O)O)c1ccc(Cl)cc1` (stereo not shown) [baclofen], the “effect on "epilepsy-like" discharges of pyramidal cells” value in data set [1] was “inhibits”.
